Measurements as given in ChEMBL document CHEMBL3886753, “Heterocyclic carboxylic acids as activators of soluble guanylate cyclase” (2016).

Assay: Homogeneous Time Resolved Fluorescence Assay: The sGC cellular activator assay is performed in the presence and absence of 50% human serum (HS) using Chinese hamster ovary cells that have been stably transfected to express the human soluble guanylate cyclase alpha 1 and beta 1 subunits (sGC). Cells are preincubated with 40 microM 1H-[1,2,4]oxadiazolo[4,3-a]quinoxalin-1-one (ODQ), an sGC inhibitor, for one h in buffer containing 0.1% bovine serum albumin and 3-isobutyl-1-methylxanthine (IBMX). Concentration response curves are prepared for test compounds in DMSO. An intermediate dilution of the compounds is performed in either buffer containing IBMX or type AB HS containing IBMX. Diluted compounds are added to cells and they are incubated at room temperature for thirty min. cGMP is measured using a CisBio homogeneous time resolved fluorescence kit and the EC50 is calculated for each compound.
In the case of Cc1cccc(-c2csc(N3CC[C@@]4(C(=O)O)C[C@H]4C3)n2)c1OCc1cnc2c(c1)CCN(C1CCOC1)C2 (stereo partly drawn), the EC50 is reported as 453 nM. Molecule Cc1cccc(-c2csc(N3CC[C@@]4(C(=O)O)C[C@H]4C3)n2)c1OCc1ccc2c(c1)CCN(C1CCOC1)CC2 (stereo partly drawn) has an EC50 of 11 nM. With Cc1cc(COc2c(C)cccc2-c2csc(N3CC[C@@]4(C(=O)O)C[C@H]4C3)n2)cc2c1CN(C1COC1)CC2 the EC50 was 2 nM. For Cc1cc(COc2c(C)cccc2-c2csc(N3CC[C@@]4(C(=O)O)C[C@H]4C3)n2)cc2c1CN(CC1COCCO1)CC2 (stereo partly drawn), the EC50 was 11 nM. O=C(O)[C@@]12CCN(c3nccc(-c4ccccc4OCc4ccc5c(c4)CCN(C4CCOCC4)C5)n3)C[C@@H]1C2 showed an EC50 of 32 nM. For CO[C@@H]1CN(c2cccc(-c3cccc(C)c3OCc3ccc4c(c3C)CCN(C3CCOCC3)CC4)n2)CC[C@@H]1C(=O)O, the EC50 was 6 nM. Cc1cccc(-c2csc(N3CC[C@@]4(C(=O)O)C[C@H]4C3)n2)c1OCc1cnc2c(c1)CCN(C1CCOCC1)C2 showed an EC50 of 209 nM. With Cc1cccc(-c2csc(N3CC[C@@]4(C(=O)O)C[C@H]4C3)n2)c1OCc1ccc2c(c1C)CCN(C1COC1)C2 the EC50 was 17 nM. With CO[C@@H]1CN(c2nc(-c3cc(F)cc(C)c3OCc3ccc4c(c3)[C@@H](C)CN(C3CCOCC3)CC4)cs2)CC[C@@H]1C(=O)O the EC50 was 5 nM. For Cc1ccc(OCc2ccc3c(c2)CCN(C2COC2)C3)c(-c2csc(N3CC[C@@]4(C(=O)O)C[C@H]4C3)n2)c1, the EC50 was 73 nM. In the case of Cc1cccc(-c2csc(N3CC[C@@]4(C(=O)O)C[C@H]4C3)n2)c1OCc1ccc2c(c1C)CCN(C1CCOCC1)C2, the EC50 is reported as 11 nM. In the case of Cc1ccc(OCc2ccc3c(c2C)CCN(C2COC2)CC3)c(-c2cccc(N3CC4C[C@]4(C(=O)O)C3)n2)c1 (stereo partly drawn), the EC50 is reported as 50 nM. In the case of Cc1cccc(-c2csc(N3CC[C@@]4(C(=O)O)C[C@H]4C3)n2)c1OCc1ccc2c(c1C)CCN(C1COC1)CC2, the EC50 is reported as 6 nM. Cc1cccc(-c2csc(N3CC[C@@]4(C(=O)O)C[C@H]4C3)n2)c1OCc1ccc2c(c1C)CCN(C1CCOCC1)CC2 gave an EC50 of 2 nM. Work on CO[C@H]1CN(c2nc(-c3cc(C)ccc3OCc3ccc4c(c3C)CCN(C[C@@H]3CCOC3)C4)cs2)CC[C@H]1C(=O)O yielded an EC50 of 17 nM. Cc1cccc(-c2csc(N3CC[C@@]4(C(=O)O)C[C@H]4C3)n2)c1OCc1ccc2c(c1)CCN(C1CCOCC1)CC2 gave an EC50 of 10 nM. In the case of Cc1ccc(OCc2ccc3c(c2C)CCN(C2CCOCC2)C3)c(-c2ccnc(N3CC[C@@]4(C(=O)O)C[C@H]4C3)n2)c1, the EC50 is reported as 12 nM. Molecule CO[C@@H]1CN(c2nc(-c3cc(F)cc(C)c3OCc3ccc4c(c3)[C@H](C)CN(C3CCOCC3)CC4)cs2)CC[C@@H]1C(=O)O has an EC50 of 11 nM.
